US8192962B2, “Processes for detecting toxic substances” (Daikin Industries, Ltd., priority 2001, dated 2012)

Tested on: Detoxification protein genes
Test: DNA chip mRNA expression in yeast, detoxification protein genes (Table 8)
Assay type: cell-based, Saccharomyces cerevisiae S288C
Outline: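 First, S288C yeast grown in YPD at 25° C. are dosed in log phase with one toxicant (growth-inhibiting, not lethal) for 2 h. Next, total RNA is extracted and poly(A) mRNA isolated and reverse-transcribed with Cy3/Cy5-dUTP. Finally, whole-genome chip fluorescence is read relative to unexposed cells.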

In the case of O=[N+]([O-])c1cc[n+]([O-])c2ccccc12 [(5), 4-nitroquinolin-N-oxide], the “The level of expressed mRNA in the presence of chemical substance/The level of expressed mRNA in the absence of chemical substance” value (yeast gene YBR244W) is reported as 1.7, the “The level of expressed mRNA in the presence of chemical substance/The level of expressed mRNA in the absence of chemical substance” value (yeast gene YBR293W) is reported as 0.8 and the “The level of expressed mRNA in the presence of chemical substance/The level of expressed mRNA in the absence of chemical substance” value (yeast gene YCL035C) is reported as 1.5. For the same molecule, the “The level of expressed mRNA in the presence of chemical substance/The level of expressed mRNA in the absence of chemical substance” value (yeast gene YCL069W) was 0.9, the “The level of expressed mRNA in the presence of chemical substance/The level of expressed mRNA in the absence of chemical substance” value (yeast gene YCR083W) was 1.6 and the “The level of expressed mRNA in the presence of chemical substance/The level of expressed mRNA in the absence of chemical substance” value (yeast gene YDL100C) was 1.0. The “The level of expressed mRNA in the presence of chemical substance/The level of expressed mRNA in the absence of chemical substance” value (yeast gene YDL168W) was 1.2, the “The level of expressed mRNA in the presence of chemical substance/The level of expressed mRNA in the absence of chemical substance” value (yeast gene YDR256C) was 1.2 and the “The level of expressed mRNA in the presence of chemical substance/The level of expressed mRNA in the absence of chemical substance” value (yeast gene YDR453C) was 0.7. For the same molecule, the “The level of expressed mRNA in the presence of chemical substance/The level of expressed mRNA in the absence of chemical substance” value (yeast gene YDR513W) was 0.9, the “The level of expressed mRNA in the presence of chemical substance/The level of expressed mRNA in the absence of chemical substance” value (yeast gene YDR538W) was 1.0 and the “The level of expressed mRNA in the presence of chemical substance/The level of expressed mRNA in the absence of chemical substance” value (yeast gene YEL027W) was 1.0. For the same molecule, the “The level of expressed mRNA in the presence of chemical substance/The level of expressed mRNA in the absence of chemical substance” value (yeast gene YEL065W) was 1.4, the “The level of expressed mRNA in the presence of chemical substance/The level of expressed mRNA in the absence of chemical substance” value (yeast gene YER185W) was 1.6 and the “The level of expressed mRNA in the presence of chemical substance/The level of expressed mRNA in the absence of chemical substance” value (yeast gene YFL050C) was 1.0. The “The level of expressed mRNA in the presence of chemical substance/The level of expressed mRNA in the absence of chemical substance” value (yeast gene YGL013C) was 1.1, the “The level of expressed mRNA in the presence of chemical substance/The level of expressed mRNA in the absence of chemical substance” value (yeast gene YGL254W) was 1.1 and the “The level of expressed mRNA in the presence of chemical substance/The level of expressed mRNA in the absence of chemical substance” value (yeast gene YGR088W) was 1.0. For the same molecule, the “The level of expressed mRNA in the presence of chemical substance/The level of expressed mRNA in the absence of chemical substance” value (yeast gene YGR138C) was 0.8, the “The level of expressed mRNA in the presence of chemical substance/The level of expressed mRNA in the absence of chemical substance” value (yeast gene YGR197C) was 0.7 and the “The level of expressed mRNA in the presence of chemical substance/The level of expressed mRNA in the absence of chemical substance” value (yeast gene YGR209C) was 1.9. The “The level of expressed mRNA in the presence of chemical substance/The level of expressed mRNA in the absence of chemical substance” value (yeast gene YGR224W) was 1.4, the “The level of expressed mRNA in the presence of chemical substance/The level of expressed mRNA in the absence of chemical substance” value (yeast gene YHL040C) was 1.1 and the “The level of expressed mRNA in the presence of chemical substance/The level of expressed mRNA in the absence of chemical substance” value (yeast gene YHL047C) was 1.2. For the same molecule, the “The level of expressed mRNA in the presence of chemical substance/The level of expressed mRNA in the absence of chemical substance” value (yeast gene YHR008C) was 0.6, the “The level of expressed mRNA in the presence of chemical substance/The level of expressed mRNA in the absence of chemical substance” value (yeast gene YHR048W) was 1.0 and the “The level of expressed mRNA in the presence of chemical substance/The level of expressed mRNA in the absence of chemical substance” value (yeast gene YHR053C) was 2.9. The “The level of expressed mRNA in the presence of chemical substance/The level of expressed mRNA in the absence of chemical substance” value (yeast gene YHR055C) was 2.7, the “The level of expressed mRNA in the presence of chemical substance/The level of expressed mRNA in the absence of chemical substance” value (yeast gene YIR002C) was 1.2 and the “The level of expressed mRNA in the presence of chemical substance/The level of expressed mRNA in the absence of chemical substance” value (yeast gene YIR038C) was 0.7. The “The level of expressed mRNA in the presence of chemical substance/The level of expressed mRNA in the absence of chemical substance” value (yeast gene YJL101C) was 1.4, the “The level of expressed mRNA in the presence of chemical substance/The level of expressed mRNA in the absence of chemical substance” value (yeast gene YJR104C) was 1.5 and the “The level of expressed mRNA in the presence of chemical substance/The level of expressed mRNA in the absence of chemical substance” value (yeast gene YKL026C) was 1.0. For the same molecule, the “The level of expressed mRNA in the presence of chemical substance/The level of expressed mRNA in the absence of chemical substance” value (yeast gene YKL064W) was 1.2, the “The level of expressed mRNA in the presence of chemical substance/The level of expressed mRNA in the absence of chemical substance” value (yeast gene YKR066C) was 1.0 and the “The level of expressed mRNA in the presence of chemical substance/The level of expressed mRNA in the absence of chemical substance” value (yeast gene YKR105C) was 1.0. The “The level of expressed mRNA in the presence of chemical substance/The level of expressed mRNA in the absence of chemical substance” value (yeast gene YKR106W) was 1.2, the “The level of expressed mRNA in the presence of chemical substance/The level of expressed mRNA in the absence of chemical substance” value (yeast gene YLL028W) was 0.9 and the “The level of expressed mRNA in the presence of chemical substance/The level of expressed mRNA in the absence of chemical substance” value (yeast gene YLL057C) was 1.1. For the same molecule, the “The level of expressed mRNA in the presence of chemical substance/The level of expressed mRNA in the absence of chemical substance” value (yeast gene YLL060C) was 0.9, the “The level of expressed mRNA in the presence of chemical substance/The level of expressed mRNA in the absence of chemical substance” value (yeast gene YLR043C) was 2.0 and the “The level of expressed mRNA in the presence of chemical substance/The level of expressed mRNA in the absence of chemical substance” value (yeast gene YLR046C) was 1.0. For the same molecule, the “The level of expressed mRNA in the presence of chemical substance/The level of expressed mRNA in the absence of chemical substance” value (yeast gene YML028W) was 1.6, the “The level of expressed mRNA in the presence of chemical substance/The level of expressed mRNA in the absence of chemical substance” value (yeast gene YML116W) was 1.2 and the “The level of expressed mRNA in the presence of chemical substance/The level of expressed mRNA in the absence of chemical substance” value (yeast gene YMR015C) was 1.7. For the same molecule, the “The level of expressed mRNA in the presence of chemical substance/The level of expressed mRNA in the absence of chemical substance” value (yeast gene YMR038C) was 1.5, the “The level of expressed mRNA in the presence of chemical substance/The level of expressed mRNA in the absence of chemical substance” value (yeast gene YNL239W) was 1.2 and the “The level of expressed mRNA in the presence of chemical substance/The level of expressed mRNA in the absence of chemical substance” value (yeast gene YNL241C) was 0.8. The “The level of expressed mRNA in the presence of chemical substance/The level of expressed mRNA in the absence of chemical substance” value (yeast gene YNL259C) was 1.1, the “The level of expressed mRNA in the presence of chemical substance/The level of expressed mRNA in the absence of chemical substance” value (yeast gene YOL158C) was 1.2 and the “The level of expressed mRNA in the presence of chemical substance/The level of expressed mRNA in the absence of chemical substance” value (yeast gene YOR031W) was 1.4. For the same molecule, the “The level of expressed mRNA in the presence of chemical substance/The level of expressed mRNA in the absence of chemical substance” value (yeast gene YOR153W) was 1.0, the “The level of expressed mRNA in the presence of chemical substance/The level of expressed mRNA in the absence of chemical substance” value (yeast gene YOR247W) was 0.6 and the “The level of expressed mRNA in the presence of chemical substance/The level of expressed mRNA in the absence of chemical substance” value (yeast gene YOR251C) was 0.8. For the same molecule, the “The level of expressed mRNA in the presence of chemical substance/The level of expressed mRNA in the absence of chemical substance” value (yeast gene YOR273C) was 1.1, the “The level of expressed mRNA in the presence of chemical substance/The level of expressed mRNA in the absence of chemical substance” value (yeast gene YPL163C) was 0.6 and the “The level of expressed mRNA in the presence of chemical substance/The level of expressed mRNA in the absence of chemical substance” value (yeast gene YPR200C) was 1.6.
